Reference: PubChem BioAssay AID2060512 (Molecular Pharmacology Branch, DTP, NCI, 2025)
Blank lines part the entries; values can stand above or below the compound they belong to.

System: 186277-243-T-J2-PDC complex spheroid viability
Assay: Anticancer human tumor 186277-243-T-J2-PDC patient-derived colon adenocarcinoma cell line growth inhibition [GQUAD]
Details: for IC50: curve of first compound; for viability, T/C: stronger effect = lower value
How it was run: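 Viability of tumor cells grown as complex spheroids with endothelial and stromal cells, exposed to drug combinations. Top concentration at or near clinical Cmax (else 10 microM), diluted in half-log increments.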

[1] = second compound 0.0316 µM, first compound 0.0316 µM
[2] = second compound 0.0316 µM, first compound 0.1 µM
[3] = second compound 0.0316 µM, first compound 0.316 µM
[4] = second compound 0.0316 µM, first compound 1 µM
[5] = second compound 0.0316 µM, first compound 3.16 µM
[6] = second compound 0.0316 µM, first compound 10 µM
[7] = second compound 0.1 µM, first compound 0.0316 µM
[8] = second compound 0.1 µM, first compound 0.1 µM
[9] = second compound 0.1 µM, first compound 0.316 µM
[10] = second compound 0.1 µM, first compound 1 µM
[11] = second compound 0.1 µM, first compound 3.16 µM
[12] = second compound 0.1 µM, first compound 10 µM
[13] = second compound 0.316 µM, first compound 0.0316 µM
[14] = second compound 0.316 µM, first compound 0.1 µM
[15] = second compound 0.316 µM, first compound 0.316 µM
[16] = second compound 0.316 µM, first compound 1 µM
[17] = second compound 0.316 µM, first compound 3.16 µM
[18] = second compound 0.316 µM, first compound 10 µM
[19] = second compound 1 µM, first compound 0.0316 µM
[20] = second compound 1 µM, first compound 0.1 µM
[21] = second compound 1 µM, first compound 0.316 µM
[22] = second compound 1 µM, first compound 1 µM
[23] = second compound 1 µM, first compound 3.16 µM
[24] = second compound 1 µM, first compound 10 µM
[25] = second compound 3.16 µM, first compound 0.0316 µM
[26] = second compound 3.16 µM, first compound 0.1 µM
[27] = second compound 3.16 µM, first compound 0.316 µM
[28] = second compound 3.16 µM, first compound 1 µM
[29] = second compound 3.16 µM, first compound 3.16 µM
[30] = second compound 3.16 µM, first compound 10 µM
[31] = second compound 10 µM, first compound 0.0316 µM
[32] = second compound 10 µM, first compound 0.1 µM
[33] = second compound 10 µM, first compound 0.316 µM
[34] = second compound 10 µM, first compound 1 µM
[35] = second compound 10 µM, first compound 3.16 µM
[36] = second compound 10 µM, first compound 10 µM
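Throughout, for viability, T/C: 100% = DMSO vehicle control viability.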

IC50 (second compound 0.0316 µM): < 31.6 nM
IC50 (second compound 0.1 µM): < 31.6 nM
IC50 (second compound 0.316 µM): < 31.6 nM
IC50 (second compound 1 µM): < 31.6 nM
IC50 (second compound 3.16 µM): < 31.6 nM
IC50 (second compound 10 µM): < 31.6 nM
Structure (SMILES): CC1COCCN1c1cc(-c2ccnn2C)c2ccnc(-c3ccn[nH]3)c2n1 (stereo not drawn) + Cc1cnc(CNC(=O)c2c(=O)c3ccc(N4CCCN(C)CC4)nc3n3c2sc2ccccc23)cn1
viability, T/C [1]: 34.5%
viability, T/C [2]: 16.1%
viability, T/C [3]: 9.69%
viability, T/C [4]: 5.33%
viability, T/C [5]: 6.04%
viability, T/C [6]: 5.15%
viability, T/C [7]: 46.1%
viability, T/C [8]: 22.2%
viability, T/C [9]: 11.5%
viability, T/C [10]: 6.17%
viability, T/C [11]: 6.04%
viability, T/C [12]: 5.5%
viability, T/C [13]: 46.5%
viability, T/C [14]: 30%
viability, T/C [15]: 21%
viability, T/C [16]: 10.3%
viability, T/C [17]: 6.67%
viability, T/C [18]: 5.76%
viability, T/C [19]: 35.3%
viability, T/C [20]: 31.9%
viability, T/C [21]: 24.9%
viability, T/C [22]: 17.1%
viability, T/C [23]: 10.4%
viability, T/C [24]: 5.91%
viability, T/C [25]: 32.1%
viability, T/C [26]: 28.4%
viability, T/C [27]: 26.2%
viability, T/C [28]: 17.8%
viability, T/C [29]: 13.2%
viability, T/C [30]: 6.37%
viability, T/C [31]: 27.9%
viability, T/C [32]: 26%
viability, T/C [33]: 24.6%
viability, T/C [34]: 17.3%
viability, T/C [35]: 12%
viability, T/C [36]: 6.6%

IC50 (second compound 0.0316 µM): < 31.6 nM
IC50 (second compound 0.1 µM): < 31.6 nM
IC50 (second compound 0.316 µM): < 31.6 nM
IC50 (second compound 1 µM): < 31.6 nM
IC50 (second compound 3.16 µM): < 31.6 nM
IC50 (second compound 10 µM): < 31.6 nM
Structure (SMILES): CC1COCCN1c1cc(C2(O)CC3CCC(C2)O3)c2cnn(-c3ccn[nH]3)c2n1 (stereo not drawn) + Cc1cnc(CNC(=O)c2c(=O)c3ccc(N4CCCN(C)CC4)nc3n3c2sc2ccccc23)cn1
viability, T/C [1]: 31.3%
viability, T/C [2]: 13.1%
viability, T/C [3]: 5.91%
viability, T/C [4]: 3.51%
viability, T/C [5]: 5.56%
viability, T/C [6]: 3.63%
viability, T/C [7]: 38.7%
viability, T/C [8]: 16.4%
viability, T/C [9]: 8.6%
viability, T/C [10]: 4.53%
viability, T/C [11]: 4.78%
viability, T/C [12]: 2.97%
viability, T/C [13]: 37.7%
viability, T/C [14]: 20.9%
viability, T/C [15]: 13.4%
viability, T/C [16]: 6.49%
viability, T/C [17]: 4.71%
viability, T/C [18]: 2.1%
viability, T/C [19]: 29.5%
viability, T/C [20]: 31.5%
viability, T/C [21]: 16.4%
viability, T/C [22]: 8.79%
viability, T/C [23]: 5.94%
viability, T/C [24]: 0.5%
viability, T/C [25]: 36.2%
viability, T/C [26]: 31%
viability, T/C [27]: 19.5%
viability, T/C [28]: 10.8%
viability, T/C [29]: 5.54%
viability, T/C [30]: 0.33%
viability, T/C [31]: 34.9%
viability, T/C [32]: 28.4%
viability, T/C [33]: 23.2%
viability, T/C [34]: 10.9%
viability, T/C [35]: 6.86%
viability, T/C [36]: 0.13%

IC50 (second compound 0.0316 µM): 787 nM
IC50 (second compound 0.1 µM): 579 nM
IC50 (second compound 0.316 µM): 885 nM
IC50 (second compound 1 µM): 564 nM
IC50 (second compound 3.16 µM): < 31.6 nM
IC50 (second compound 10 µM): 65.4 nM
Structure (SMILES): CC1COCCN1c1cc(C2(S(C)(=N)=O)CC2)nc(-c2ccnc3[nH]ccc23)n1 (stereo not drawn) + Cc1cnc(CNC(=O)c2c(=O)c3ccc(N4CCCN(C)CC4)nc3n3c2sc2ccccc23)cn1
viability, T/C [1]: 107%
viability, T/C [2]: 92.4%
viability, T/C [3]: 89.8%
viability, T/C [4]: 39.4%
viability, T/C [5]: 13.1%
viability, T/C [6]: 8.67%
viability, T/C [7]: 101%
viability, T/C [8]: 73.4%
viability, T/C [9]: 68.2%
viability, T/C [10]: 39.8%
viability, T/C [11]: 18.4%
viability, T/C [12]: 9.76%
viability, T/C [13]: 73.3%
viability, T/C [14]: 83.1%
viability, T/C [15]: 66.7%
viability, T/C [16]: 47.5%
viability, T/C [17]: 27.2%
viability, T/C [18]: 17%
viability, T/C [19]: 46.2%
viability, T/C [20]: 64.6%
viability, T/C [21]: 64.6%
viability, T/C [22]: 41.6%
viability, T/C [23]: 31.6%
viability, T/C [24]: 21.3%
viability, T/C [25]: 41.8%
viability, T/C [26]: 48.6%
viability, T/C [27]: 50.6%
viability, T/C [28]: 44.5%
viability, T/C [29]: 39.2%
viability, T/C [30]: 19.4%
viability, T/C [31]: 50.6%
viability, T/C [32]: 52%
viability, T/C [33]: 43.2%
viability, T/C [34]: 37%
viability, T/C [35]: 31.6%
viability, T/C [36]: 22%

IC50 (second compound 0.0316 µM): > 10000 nM
IC50 (second compound 0.1 µM): > 10000 nM
IC50 (second compound 0.316 µM): > 10000 nM
IC50 (second compound 1 µM): > 10000 nM
IC50 (second compound 3.16 µM): < 31.6 nM
IC50 (second compound 10 µM): < 31.6 nM
Structure (SMILES): Cc1cccc(N(C)C(=O)C2C(O)CCN2c2nc(C)cc(C(F)(F)F)c2C#N)c1 (stereo not drawn) + Cc1cnc(CNC(=O)c2c(=O)c3ccc(N4CCCN(C)CC4)nc3n3c2sc2ccccc23)cn1
viability, T/C [1]: 107%
viability, T/C [2]: 110%
viability, T/C [3]: 109%
viability, T/C [4]: 100%
viability, T/C [5]: 102%
viability, T/C [6]: 117%
viability, T/C [7]: 92.8%
viability, T/C [8]: 93.3%
viability, T/C [9]: 97.4%
viability, T/C [10]: 105%
viability, T/C [11]: 94.8%
viability, T/C [12]: 78.8%
viability, T/C [13]: 73%
viability, T/C [14]: 84.1%
viability, T/C [15]: 75.1%
viability, T/C [16]: 71.7%
viability, T/C [17]: 76.6%
viability, T/C [18]: 88.5%
viability, T/C [19]: 51.6%
viability, T/C [20]: 70.4%
viability, T/C [21]: 68.6%
viability, T/C [22]: 59.5%
viability, T/C [23]: 64.9%
viability, T/C [24]: 65%
viability, T/C [25]: 42.2%
viability, T/C [26]: 52.2%
viability, T/C [27]: 47.9%
viability, T/C [28]: 47.1%
viability, T/C [29]: 52.9%
viability, T/C [30]: 51.9%
viability, T/C [31]: 45.3%
viability, T/C [32]: 45.9%
viability, T/C [33]: 38%
viability, T/C [34]: 41.6%
viability, T/C [35]: 53.1%
viability, T/C [36]: 51.4%
